According to patent publication US8906916B2, “Pyrimidine derivatives as FAK inhibitors” (Merck Patent GmbH, priority 2010, dated 2014):

Experiments:
[1] = target: focal adhesion kinase (FAK) (Homo sapiens, UniProt Q05397); test: FAK kinase assay (autophosphorylation), 384-well flashplate; assay type: biochemical; conditions: FAK inhibition, enzymatic autophosphorylation assay, 1 μM ATP
Method: FAK Kinase Assay (Autophosphorylation)
The focal adhesion kinase (FAK) assay is carried out either as a 384-well flashplate assay (for example for Topcount measurements) or as a 384-well image flashplate assay (for LEADseeker measurements). 2 nM FAK, 400 nM biotinylated substrate (His-TEV-hsFAK (31 686)(K454R) x biotin) and 1 μM ATP (to which […] of 33P-ATP/well has been added) are incubated at 30° C. for 2 hours with or without test compound in a total volume of 50 μl (60 mM Hepes, 10 mM MgCl2, 1.2 mM dithiothreitol, 0.02% of Brij35, 0.1% of BSA, pH 7.5). The reaction is stopped using 25 μl of 200 mM EDTA. After 30 min at 30° C., the liquid is removed, and each well is washed three times with 100 μl of 0.9% sodium chloride solution. Non-specific reaction is determined in the presence of 1 μM EMD 1076893/0(PF-562271). The radioactivity is measured using Topcount (in the case of the use of flashplates) or using LEADseeker (in the case of the use of image flashplates). Results (for example IC50 values) are calculated using, for example, a Symyx Assay Explorer.

FAK = target: T1, FAK (Homo sapiens, UniProt Q05397); test: Cellular testing of FAK kinase inhibitors: autophosphorylation of FAK at tyrosine 397 in HT29 cells (Luminex); assay type: cell-based; conditions: FAK inhibition, P-Y397-FAK in HT29 cells, 30 min, serum-free
T1 construct: HT29 cells are sown out with 30,000 cells per well; endogenous in cells; host or cells: HT29
T1 sequence (Q05397 whole entry): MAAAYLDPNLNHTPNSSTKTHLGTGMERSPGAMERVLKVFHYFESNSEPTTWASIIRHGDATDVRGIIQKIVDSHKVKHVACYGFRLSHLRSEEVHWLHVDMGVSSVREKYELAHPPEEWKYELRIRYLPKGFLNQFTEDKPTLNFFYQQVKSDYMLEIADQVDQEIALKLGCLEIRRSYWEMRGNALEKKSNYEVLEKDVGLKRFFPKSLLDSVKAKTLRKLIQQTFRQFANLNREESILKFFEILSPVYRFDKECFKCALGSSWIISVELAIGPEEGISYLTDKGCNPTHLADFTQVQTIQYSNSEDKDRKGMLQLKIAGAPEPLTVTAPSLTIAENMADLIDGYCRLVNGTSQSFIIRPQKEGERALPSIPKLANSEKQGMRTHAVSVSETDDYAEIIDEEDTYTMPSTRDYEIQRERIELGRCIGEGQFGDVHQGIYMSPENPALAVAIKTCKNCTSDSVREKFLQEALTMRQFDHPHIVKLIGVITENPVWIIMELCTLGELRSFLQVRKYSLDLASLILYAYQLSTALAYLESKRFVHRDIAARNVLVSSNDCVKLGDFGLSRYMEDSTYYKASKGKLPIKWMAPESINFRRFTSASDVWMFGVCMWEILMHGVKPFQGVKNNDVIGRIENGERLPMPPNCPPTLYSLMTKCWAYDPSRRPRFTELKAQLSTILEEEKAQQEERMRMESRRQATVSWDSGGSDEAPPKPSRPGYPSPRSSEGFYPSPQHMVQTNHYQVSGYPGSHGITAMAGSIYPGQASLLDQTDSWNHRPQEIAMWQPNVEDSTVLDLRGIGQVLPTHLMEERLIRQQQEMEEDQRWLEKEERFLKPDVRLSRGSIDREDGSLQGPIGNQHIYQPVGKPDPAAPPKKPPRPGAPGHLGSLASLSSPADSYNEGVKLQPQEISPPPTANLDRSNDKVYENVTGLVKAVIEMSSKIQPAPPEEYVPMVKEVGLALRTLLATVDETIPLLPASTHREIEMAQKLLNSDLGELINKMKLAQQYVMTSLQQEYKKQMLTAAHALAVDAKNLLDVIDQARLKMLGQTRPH
Method: Method for the Cellular Testing of FAK Kinase Inhibitors
For analysis of the cellular activity of FAK, the extent of autophosphorylation of FAK at tyrosine 397 is determined with the aid of a Luminex-based assay in the 96-well format. HT29 cells are sown out with 30,000 cells per well in 100 μl of medium (90% of DMEM/10% of FCS) and incubated on the following day for 30 min with a serial dilution of the test substance (7 concentrations) under serum-free conditions. The cells are subsequently lysed using 90 μl of lysis buffer (20 mM tris/HCl pH 8.0, 150 mM NaCl, 1% of NP40, 10% of glycerol, 1% of phosphatase inhibitor II, 20 mM p-glycerol phosphate, 0.1% of protease inhibitor cocktail III, 0.01% of benzonase) per well, and the lysates are separated off from insoluble cell constituents by means of centrifugation through a 96-well filter plate (0.65 μm). The lysates are incubated at 4° C. overnight with shaking with Luminex beads to which an anti-total FAK antibody is coupled. The detection is carried out on the following day by addition of a P-Y397-FAK antibody and a species-specific PE-labelled secondary antibody. P-Y397-FAK is detected by measurement in the Luminex100 instrument by determination of 100 events per cavity in a measurement time of 60 sec. As pharmacological blank, the signals obtained from cells treated with 30 μM of an FAK reference inhibitor are subtracted from all other batches. The control value used for maximum phosphorylation of FAK at Y397 are the signals from cells treated only with the solvent (0.3% of DMSO). The values of the batches treated with test substance are calculated therefrom as percent of control, and IC50 values are determined by means of Assay Explorer.

focal adhesion kinase (FAK), sequence (Q05397 whole entry): as above

Row | Compound | IC50 [1] | IC50 (FAK)
1 | CN(c1ccccc1CCc1ccnc(Nc2ccc(S(C)(=O)=O)cc2)n1)S(C)(=O)=O [A1, N-(2-{2-[2-(4-methanesulfonylphenylamino)pyrimidin-4-yl]ethyl}-phenyl)-N-methylmethanesulfonamide] | 3 to 50 µM | –
2 | CN(c1ccccc1CCc1ccnc(Nc2ccc(N3CCCCC3=O)c(C#N)c2)n1)S(C)(=O)=O [A37] | – | 0.3 to 3 µM
3 | N#CC1(c2ncccc2CCc2ccnc(Nc3ccc4c(c3)CC(=O)N4)n2)CNC1 [A16, 3-(3-{2-[2-(2-oxo-2,3-dihydro-1H-indol-5-ylamino)pyrimidin-4-yl]ethyl}pyridin-2-yl)azetidine-3-carbonitrile] | 3 to 50 µM | –
4 | O=C1CCc2cc(Nc3ncc(C(F)(F)F)c(CCc4ccccc4)n3)ccc2N1 [A103] | 0.3 to 3 µM | –
5 | N#CCc1ccc(F)cc1CCc1ccnc(Nc2ccc3c(c2)CC(=O)N3)n1 [A11] | 0.3 to 3 µM | –
6 | N#CC1(c2ccccc2CCc2ccnc(Nc3ccc4c(c3)CC(=O)N4)n2)CCC1 [A13] | 0.3 to 3 µM | –
7 | CN(c1ccccc1CCc1ccnc(Nc2cccc(C#N)c2)n1)S(C)(=O)=O [A28] | 0.3 to 3 µM | –
8 | CN(c1ncccc1CCc1ccnc(Nc2ccc(NC(=O)c3cccnc3)cc2)n1)S(C)(=O)=O [A40] | 0.3 to 3 µM | –
9 | CN(c1ccccc1CCc1ccnc(Nc2ccc(N3CCOCC3=O)cc2)n1)S(C)(=O)=O [A33] | 0.3 to 3 µM | –
10 | CN(c1ncccc1CCc1ccnc(NCc2ccc(=O)[nH]n2)n1)S(C)(=O)=O [A24] | – | 3 to 50 µM
11 | O=C1Cc2cc(Nc3ncc(C(F)(F)F)c(CCc4ccccc4)n3)ccc2N1 [A102] | 0.3 to 3 µM | –
12 | CN(c1ncccc1CCc1ccnc(Nc2ccc(N3C(=O)c4ccccc4C3=O)cc2)n1)S(C)(=O)=O [A43] | 0.3 to 3 µM | –
13 | CS(=O)(=O)c1cccc(CCc2ccnc(Nc3ccc4c(c3)CCC(=O)N4)n2)c1 [A3] | 3 to 50 µM | –
14 | CN(c1ccccc1CCc1ccnc(Nc2ccc(N3CCCC3=O)cc2)n1)S(C)(=O)=O [A35] | 0.3 to 3 µM | –
15 | CNC(=O)Cc1ccc(Nc2nccc(CCc3ccccc3N(C)S(C)(=O)=O)n2)cc1 [A32] | 0.3 to 3 µM | –
16 | N#CCc1ccccc1CCc1ccnc(Nc2ccc3c(c2)CC(=O)N3)n1 [A9] | 0.3 to 3 µM | –
17 | CN(c1ncccc1CCc1ccnc(Nc2ccc3c(c2)CC(=O)N3)n1)S(C)(=O)=O [A6] | 0.3 to 3 µM | –
18 | CN(c1ccccc1CCc1ccnc(Nc2ccc(N3C(=O)c4ccccc4C3=O)cc2)n1)S(C)(=O)=O [A38] | 0.3 to 3 µM | –
19 | CN(c1ccccc1CCc1ccnc(Nc2cc(Cl)c(N3CCCC3=O)c(Cl)c2)n1)S(C)(=O)=O [A36] | 0.3 to 3 µM | –
20 | CN(c1ccccc1CCc1ccnc(Nc2ccc(F)c(C#N)c2)n1)S(C)(=O)=O [A29] | 3 to 50 µM | –
21 | CN(c1ncccc1CCc1ccnc(Nc2cccc(C#N)c2)n1)S(C)(=O)=O [A22] | 3 to 50 µM | –
22 | CN1C(=O)Cc2cc(Nc3nccc(CCc4cccnc4N(C)S(C)(=O)=O)n3)ccc21 [A21] | 0.3 to 3 µM | –

Now from value to molecule:

Row | IC50 [1] | IC50 (FAK) | Compound
23 | 0.3 to 3 µM | – | CN(c1ccccc1CCc1ccnc(Nc2ccc3[nH]c(=O)oc3c2)n1)S(C)(=O)=O [A27]
24 | < 0.3 µM | – | N#CC1(c2ccc(F)cc2CCc2ccnc(Nc3ccc4c(c3)CC(=O)N4)n2)CCC1 [A45]
25 | < 0.3 µM | – | Cc1cnc(N(C)S(C)(=O)=O)c(CCc2ccnc(Nc3ccc4c(c3)CC(=O)N4)n2)c1 [A44]
26 | 0.3 to 3 µM | – | CN(c1ncccc1CCc1ccnc(Nc2ccc(N3CCCC3=O)cc2)n1)S(C)(=O)=O [A39]
27 | 0.3 to 3 µM | 3 to 50 µM | CN(c1ncccc1CCc1ccnc(Nc2ccc3c(c2)n(C)c(=O)n3C)n1)S(C)(=O)=O [A25]
28 | 0.3 to 3 µM | – | CN(c1ncccc1CCc1ccnc(Nc2ccc(N3CCOCC3=O)cc2)n1)S(C)(=O)=O [A41]
29 | 0.3 to 3 µM | – | CN(c1ncccc1CCc1ccnc(Nc2ccc3c(c2)CCC(=O)N3)n1)S(C)(=O)=O [A7]
30 | 0.3 to 3 µM | – | CN(c1ncccc1CCc1ccnc(Nc2ccc3[nH]c(=O)oc3c2)n1)S(C)(=O)=O [A20]
31 | 0.3 to 3 µM | – | O=C1CCc2cc(Nc3ncc(Br)c(CCc4ccccc4)n3)ccc2N1 [A101]
32 | 0.3 to 3 µM | – | N#CC1(c2cc(F)ccc2CCc2ccnc(Nc3ccc4c(c3)CC(=O)N4)n2)CCC1 [A46]
33 | 0.3 to 3 µM | – | CN(c1ccccc1CCc1ccnc(Nc2ccc3sc(=O)[nH]c3c2)n1)S(C)(=O)=O [A30]
34 | < 0.3 µM | 0.3 to 3 µM | CN(c1ccccc1CCc1ccnc(Nc2ccc(NC(=O)c3cccnc3)cc2)n1)S(C)(=O)=O [A34]
35 | < 0.3 µM | 3 to 50 µM | CC(=O)N1CCc2cc(Nc3nccc(CCc4ccccc4N(C)S(C)(=O)=O)n3)ccc21 [A31]
36 | < 0.3 µM | 3 to 50 µM | CN(c1ccccc1CCc1ccnc(Nc2ccc3c(c2)CCC(=O)N3)n1)S(C)(=O)=O [A2, N-methyl-N-(2-{2-[2-(2-oxo-1,2,3,4-tetrahydroquinolin-6-ylamino)pyrimidin-4-yl]ethyl}phenyl)methanesulfonamide]
37 | < 0.3 µM | – | CN(c1ccccc1CCc1ccnc(Nc2ccc3c(c2)CC(=O)N3)n1)S(C)(=O)=O [A5]
